US20100261630A1, “ANTIMICROBIAL HAND WASH FORMULATIONS” (priority 2006, published 2010)

Experiment: Patch irritancy test on test subject's skin
Details: control diluted to 0.2 percent of the original volume into deionized water

CCCCCCCCCCCCOS(=O)(=O)[O-].[Na+] [Sodium Lauryl Sulfate]
Classification: Experimental Cumulative
Irritancy Score: 14918.5
